From patent US20230304041A1, “DUAL PROMOTER-DRIVEN AND DUAL REPORTER-[…]-COV-2 REPLICONS AND METHODS OF USE” (Rosalind Franklin University of Medicine & Science, priority 2022, published 2023)

System: SARS2 replicon
Assay: microbe, parasite or virus in culture
Format: cell-based, SARS-CoV-2
Details: Severe acute respiratory syndrome coronavirus 2, HEK-293T, 24 hr, read-out: inhibition of fLuc

CCC(CC)COC(=O)[C@H](C)N[P@](=O)(OC[C@H]1O[C@@](C#N)(c2ccc3c(N)ncnn23)[C@H](O)[C@@H]1O)Oc1ccccc1 [Remdesivir]
inhibition at 10 µM: 70%
